From patent US20210317111A1, “NOVEL MEDICAMENT FOR TREATING INFLAMMATORY BOWEL DISEASE” (OTSUKA PHARMACEUTICAL CO., LTD., priority 2018, published 2021)

Tests used:
[1] = system: activated T cell (CD25+ cell); test: T-cell activation (CD25+ cells) in anti-CD3/CD28/CD2 bead-stimulated PBMC; type: cell-based, human; conditions: both CD4-positive and CD8-positive T-cell
Method: (§1) Peripheral blood (30 mL) derived from a healthy adult was layered on a lymphocyte tube Leucosep™ containing Lymphoprep (15 mL), and the tube was centrifuged at room temperature at 2000 rpm for 20 minutes. After the centrifugation, the upper 5 mL of the plasma was removed from the peripheral blood mononuclear cell (PBMC) layer with an aspirator, and the left solution containing the PBMC layer was collected into a new 50 mL tube. To the collected solution was added an equal amount of Hanks' balanced salt solution (HBSS) to dilute the cell suspension. The diluted solution was centrifuged at 4° C. at 1800 rpm for 5 minutes. After the centrifugation, the supernatant was discarded, the rest was suspended in 10 mL of AIM-V. The suspension was centrifuged at 4° C. at 1500 rpm for 5 minutes, and the supernatant was discarded. The same washing process was repeated one more time. After the centrifugation, the supernatant was discarded, and the obtained cell was suspended in 5% FBS-containing AIM-V to be used in the following tests.
To 96-well round-bottom plate were added 100 μL of medium containing the compound, 100 μL (0.5×10^5 beads) of anti-CD3/CD28/CD2-loaded bead suspension (Miltenyi), and 100 μL (1×10^5 cells) of PBMC suspension. The mixture was incubated at 37° C. in 5% CO2 for 3 days.

[2] = system: TNF-α production; test: inhibition of LPS-induced TNF-α production in human peripheral blood (ELISA); type: cell-based; conditions: 24 hours
Method: The LPS solution which was adjusted to 2 μg/mL with RPMI 1640 medium was added to 48-well plate in the amount of 250 μL/well. The each diluted solution of each test compound and the diluted solution of the solvent control were added to 3 wells for each concentration in the amount of 50 μL/well, 4-fold diluted solution of human peripheral blood was added to each well (200 μL/well), and the wells were incubated at 37° C. in 5% CO2 for 24 hours. As LPS (−) control, RPMI 1640 medium without added LPS was prepared in the same manner. The final concentrations of each test sample were adjusted to 0, 1, 3, 10, 30, and 100 μM, and the final concentration of prednisolone was adjusted to 0.3 μM. 24 hours later from the incubation, each supernatant was collected and stored at −80° C. until the measurement of the TNF-α concentration.
The TNF-α concentration was measured by ELISA with Human TNF-alpha Quantikine ELISA Kit (R & D Systems). Each sample was unfrozen at room temperature, and diluted with Calibrator Diluent RD6-35 (1×) of the kit by 10-fold. The 10-fold diluted supernatant and the TNF-α standard solution were added on TNF-α microplate, and reacted according to the operating manual of the kit. After the coloring, the absorbance at wave length of 450 nm was measured with a microplate reader (Multiskan FC; Thermo Fisher […]), and the calibration curve was prepared with an analysis software (Skanit Software 3.1.0.4 RE for Multiskan FC (ja)) to read the TNF-α concentration of each sample. Calibration curve used a 4-parameter logistic curve.
The inhibition rates were presented as the mean±standard deviation using Microsoft Excel 2010. For each blood donor, the TNF-α production rate under each compound concentration was calculated with the TNF-α concentration in the supernatant of the solvent group as 100%.
The results are averages of the measurements obtained from the human peripheral blood of three volunteers.

[3] = system: TNBS-induced enteritis; test: TNBS-induced enteritis model; type: in vivo, rat
Method: An enteritis animal model induced with 2,4,6-trinitrobenzenesulfonic acid (TNBS) is widely used as Crohn's disease model since the inflammatory finding is pathologically similar to that of human Crohn's disease. In addition, the enteritis model was used in the non-clinical study of mesalazine that is a medicament for treating Crohn's disease. Thus, this enteritis model was used as Crohn's disease model for evaluating the present compound.
Rats were made to be fasted for 24 or 48 hours, and the body weight were measured. The rats were laparotomized under isoflurane anesthesia, and 50% ethanol (0.25 mL) containing 60 mg/mL 2,4,6-trinitrobenzenesulfonic acid (TNBS) was injected into the large intestine from the cecum side toward the anal side to induce the injury. Each group composed of 12 rats was set, and vehicle, the present compound, or salazosulfapyridine (SASP) which is an already-existing drug for treating inflammatory bowel disease were administered for 7 days from the first day after the injection of TNBS. On the 8th day, each rat was laparotomized under anesthesia and killed by exsanguination. The large intestine was removed from the anus to the cecum, the large intestine was longitudinally incised, and the incised large intestine was washed with a cold saline. The lesion area of the large intestine was photographed with a digital camera. The area of the lesion area in the photograph of the large intestine was measured using image analyzing program.
Each compound was orally administered at a dose of 100 mg/kg twice a day from one day after inducing enteritis with TNBS. Each area of the lesion area on the 8th day was compared.

[4] = system: proliferated T cell; test: T-cell proliferation (CFSE) in stimulated PBMC; type: cell-based, human; conditions: both CD4-positive and CD8-positive T-cell; 2 days
Method: as §1, with “tests. […]” for “tests.”

[5] = system: Streptococcus spp; test: antibacterial activity against intestinal bacteria (MIC); type: cell-based
Method: (§2) The antibacterial activity of the present compound was examined against Bacteroides spp and Streptococcus spp, which are enterobacteria.
(§3) The antibacterial activity (minimum inhibitory concentration (MIC)) was assayed by agar plate dilution method or broth microdilution method, which is based on Clinical and laboratory standards institute (CLSI). Specifically, the experiment was performed as follows. The compound of the present invention or the control substance was prepared by 2-fold serial dilution, respectively, and test strains were inoculated on the medium suitable for each test strain. After the inoculation followed by incubation at 37° C. under aerobic or anaerobic conditions, the minimum concentration at which colony formation was not observed in agar plate dilution method, or the minimum concentration without turbidity of the culture medium (the bacterial growth was not observed) in broth microdilution method was determined as MIC.

[6] = system: Bacteroides spp; test: as above; type: cell-based
Method: as §2, §3

With Cc1c(-c2cnc(N)c(C#N)c2)c(F)cc2c(=O)c(C(=O)O)cn(C3CC3)c12 [the present compound, 7-(6-amino-5-cyanopyridin-3-yl)-1-cyclopropyl-6-fluoro-1,4-dihydro-8-methyl-4-oxo-3-quinoline-carboxylic acid] the “inhibitory activity on T cell activation compared with prednisolone” value ([1]; 30 μM) was “higher inhibitory activity than prednisolone”, the “rate of activated T cell” value ([1]; 6 people's human PBMC, 3 days) was “decreased” and the “inhibitory effect on TNF-α production at 100 μM” value ([2]; 100 μM, human peripheral blood) was “completely inhibited”. For the same compound, the “inhibitory activity for TNF-α production over concentration range” value ([2]; 1, 3, 10, 30, 100 μM, human peripheral blood) was “dose-dependent manner”, the IC50 ([2]; human peripheral blood of three volunteers) was 6.25 µM and the “area of the lesion area of the large intestine” value ([3]; 100 mg/kg orally twice a day for 7 days, 8th day, vs vehicle control, P<0.01 t-test) was “significantly inhibited the area of lesion”. For the same compound, the “number of death during the treatment” value ([3]; 100 mg/kg orally twice a day, 12 rats per group) was “decreased the number of death”, the “inhibition of T cell proliferation (MFI CFSE)” value [4] was “effect of cell growth inhibition” and the antibacterial activity [5] was “strong antibacterial activities”. The antibacterial activity [6] was “strong antibacterial activities”.
